Patent US6156700A, “3-(1,2-Benzisothiazol- and isoxazol-5-yl)-2,4(1H,3H)-pyrimidinedione or thione and 3-(1,2-benzisothiazol- and isoxazol-5-yl)-4(3H)-pyrimidinone or thione herbicidal agents” (American Cyanmid Company, priority 1998, dated 2000)

Columns and labels:
[1] = test system: Velvetleaf, Abutilon theophrasti; test: Postemergence herbicidal evaluation, ABUTH; assay type: in vivo, Medic.
In short: (§1)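 Roughly two-week-old seedlings sprayed with compound dispersed in 50/50 acetone/water plus 0.5% TWEEN 20, delivering about 0.0157 to 0.500 kg active per hectare through a nozzle at 40 psi. Kept in greenhouse; visually rated 4–5 weeks after treatment on a 0–9 scale (stand, vigor, malformation, size, chlorosis) versus control, replicate tests averaged.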

[2] = test system: Sicklepod, Cassia obtusifolia; test: Postemergence herbicidal evaluation, CASOB; assay type: in vivo, L.
In short: as §1

Galium, Galium aparine = test: Postemergence herbicidal evaluation, GALAP; assay type: in vivo
In short: as §1

[3] = test system: Morningglory Spp., Ipomoea Spp.; test: Postemergence herbicidal evaluation, IPOSS; assay type: in vivo; conditions: 0.2500 kg/ha
Description: In the tests, seedling plants are grown in jiffy flats for about two weeks. The test compounds are dispersed in 50/50 acetone/water mixtures containing 0.5% TWEEN®20, a polyoxyethylene sorbitan monolaurate surfactant of Atlas Chemical Industries, in sufficient quantities to provide the equivalent of about 0.0157 kg to 0.500 kg per hectare of active compound when applied to the plants through a spray nozzle operating at 40 psi for a predetermined time. After spraying, the plants are placed on greenhouse benches and are cared for in accordance with conventional greenhouse procedures. From four to five weeks after treatment, the seedling plants are examined and rated according to the rating system set forth below. Where more than one test is involved for a given compound, the data are averaged.
Results of herbicide evaluation are expressed on a rating scale (0-9). The scale is based upon a visual observation of plant stand, vigor, malformation, size, chlorosis and overall plant appearance as compared with a control.

[4] = test system: Foxtail, Green, Setaria viridis; test: Postemergence herbicidal evaluation, SETVI; assay type: in vivo, (L.) Beau
In short: as §1

[5] = test system: Ragweed, Common, Ambrosia artemisifolia; test: Preemergence herbicidal evaluation, AMBEL; assay type: in vivo, L.; conditions: 0.2500 kg/ha
In short: (§2)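 Seeds mixed with potting soil were planted on about one inch of soil in cups, then sprayed with test compound in aqueous acetone at about 0.0156 to 0.500 kg per hectare. Plants were grown under greenhouse conditions and rated visually 4–5 weeks after treatment on a 0–9 scale against a control.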

[6] = test system: Rice, Tebonnet, Oryza sativa; test: Preemergence herbicidal evaluation, ORYSAT; assay type: in vivo, (L.) Tebonnet; conditions: 0.2500 kg/ha
In short: as §2

[7] = test system: Wheat, Winter, cv Riband, Triticum aestivum; test: Preemergence herbicidal evaluation, TRZAWR; assay type: in vivo; conditions: 0.2500 kg/ha
In short: as §2

CYPSE Flatsedge [8] = test: Preemergence weed control, flooded paddy (Table III); assay type: in vivo, Cyperus serotinus; parameters: scale not given here
Description: (§3) Preemergence herbicidal activity under flooded paddy conditions is determined as follows: plant seeds or propagating organs are planted in the top 0.5 cm of silt loam soil in 32 oz. plastic containers with a diameter of 10.5 cm and no drainage holes. Water is added to these containers and maintained at 1.5 to 3 cm above the soil surface for the duration of the experiment. The test compounds are applied as aqueous/acetone mixtures 50/50 v/v pipetted directly into the flood water to give the equivalent of about 0.0313 to 0.500 kg/ha of active ingredient. The treated containers are placed on greenhouse benches and cared for in accordance with conventional greenhouse procedures. Three to four weeks after treatment, the test is terminated and each container is examined and herbicidal effect rated according to the rating system provided in Example 185. The compounds evaluated are reported by compound number given in Example 185.

MOOVA Monochoria [9] = test: as above; assay type: in vivo, Monochoria vaginalis; parameters: scale not given here
Description: as §3

ORYSAT Rice, Tebonnet [10] = test: Tolerance of transplanted rice to post-transplant application (Table III); assay type: in vivo, Oryza sativa; parameters: scale not given here; conditions: crop tolerance
Description: The tolerance of transplanted rice to post-transplanted herbicide applications is determined as follows: two ten-day-old rice seedlings (cv. Tebonnet) are transplanted into silt loam soil in 32 oz. plastic containers with a diameter of 10.5 cm and no drainage holes. After transplanting, the containers are flooded and the water level is maintained at 1.5 to 3 cm above the soil surface. Three days after transplanting, the flooded soil surface of the containers is treated with the selected aqueous/acetone 50/50 v/v mixture containing the test compounds to provide the equivalent of about 0.0313 to 0.500 kg/ha of active ingredient. The treated containers are placed on greenhouse benches, watered such that the water level is maintained as stated above, and cared for in accordance with conventional greenhouse procedures. Three to four weeks after treatment, the test is terminated and each container is examined and herbicidal effect rated according to the rating system provided in Example 185. The compounds evaluated are reported by compound number given in Example 185.

CYPIR Rice Flatsedge = test: Postemergence weed control, flooded paddy (Table IV); assay type: in vivo, Cyperus iria; parameters: scale not given here
In short: (§4)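 Containers holding 3 to 5 cm weeds and rice at the 1.5 to 2.5 leaf stage are flooded and kept 1.5 to 3 cm deep. Test material is applied directly into the water at about 0.0313 to 0.500 kg/ha, then plants are held in the greenhouse for three to four weeks before rating.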

CYPSE Flatsedge [11] = test: as above; assay type: in vivo, Cyperus serotinus; parameters: scale not given here
In short: as §4

MOOVA Monochoria [12] = test: as above; assay type: in vivo, Monochoria vaginalis; parameters: scale not given here
In short: as §4

[13] = test system: SAGPY Arrowhead (Pygmaea); test: as above; assay type: in vivo, Sagittaria pygmaea; parameters: scale not given here
In short: as §4

ORYSAT Rice, Tebonnet [14] = test: Rice tolerance, flooded paddy (Table IV); assay type: in vivo, Oryza sativa; parameters: scale not given here; conditions: crop tolerance
In short: as §4

| SMILES | herbicide rating (0-9) ([1]; 0.2500 kg/ha) | herbicide rating (0-9) ([2]; 0.2500 kg/ha) | herbicide rating (0-9) (Galium, Galium aparine; 0.2500 kg/ha) | herbicide rating (0-9) [3] | herbicide rating (0-9) ([4]; 0.2500 kg/ha) | herbicide rating (0-9) [5] | herbicide rating (0-9) [6] | herbicide rating (0-9) [7] | herbicidal effect rating (CYPSE Flatsedge [8]; 0.0625 kg/ha) | herbicidal effect rating (CYPSE Flatsedge [8]; 0.1250 kg/ha) | herbicidal effect rating (CYPSE Flatsedge [8]; 0.2500 kg/ha) | herbicidal effect rating (CYPSE Flatsedge [8]; 0.5000 kg/ha) | herbicidal effect rating (MOOVA Monochoria [9]; 0.0625 kg/ha) | herbicidal effect rating (MOOVA Monochoria [9]; 0.1250 kg/ha) | herbicidal effect rating (MOOVA Monochoria [9]; 0.2500 kg/ha) | herbicidal effect rating (MOOVA Monochoria [9]; 0.5000 kg/ha) | herbicidal effect rating (ORYSAT Rice, Tebonnet [10]; 0.0625 kg/ha) | herbicidal effect rating (ORYSAT Rice, Tebonnet [10]; 0.1250 kg/ha) | herbicidal effect rating (ORYSAT Rice, Tebonnet [10]; 0.2500 kg/ha) | herbicidal effect rating (ORYSAT Rice, Tebonnet [10]; 0.5000 kg/ha) | also measured |
| --- | --- | --- | --- | --- | --- | --- | --- | --- | --- | --- | --- | --- | --- | --- | --- | --- | --- | --- | --- | --- | --- |
| CCc1ccc(-c2nsc3ccc(-n4c(=O)cc(C(F)(F)F)n(C)c4=O)cc23)cc1 [Compound 5, 3-[3-(p-Ethylphenyl)-1,2-benzisothiazol-5-yl]-1-methyl-6-(trifluoromethyl)-2,4 (1H,3H)-pyrimidinedione] | 9.0 | 9.0 | 9.0 | 9.0 | 9.0 | 9.0 | 7.0 | 4.0 | 2.0 | 6.0 | 8.0 | 7.0 | 9.0 | 9.0 | 9.0 | 9.0 | 3.0 | 4.0 | 5.0 | 7.0 | herbicidal effect rating (CYPSE Flatsedge [8]; 0.0313 kg/ha): 0.0; herbicidal effect rating (MOOVA Monochoria [9]; 0.0313 kg/ha): 9.0; herbicidal effect rating (ORYSAT Rice, Tebonnet [10]; 0.0313 kg/ha): 2.0; herbicidal effect rating (CYPIR Rice Flatsedge; 0.1250 kg/ha): 9.0; herbicidal effect rating (CYPIR Rice Flatsedge; 0.2500 kg/ha): 9.0; herbicidal effect rating (CYPIR Rice Flatsedge; 0.5000 kg/ha): 9.0; herbicidal effect rating (CYPSE Flatsedge [11]; 0.1250 kg/ha): 0.0; herbicidal effect rating (CYPSE Flatsedge [11]; 0.2500 kg/ha): 0.0; herbicidal effect rating (CYPSE Flatsedge [11]; 0.5000 kg/ha): 0.0; herbicidal effect rating (MOOVA Monochoria [12]; 0.1250 kg/ha): 9.0; herbicidal effect rating (MOOVA Monochoria [12]; 0.2500 kg/ha): 9.0; herbicidal effect rating (MOOVA Monochoria [12]; 0.5000 kg/ha): 9.0; herbicidal effect rating ([13]; 0.1250 kg/ha): 4.0; herbicidal effect rating ([13]; 0.2500 kg/ha): 6.0; herbicidal effect rating ([13]; 0.5000 kg/ha): 8.0; herbicidal effect rating (ORYSAT Rice, Tebonnet [14]; 0.1250 kg/ha): 4.0; herbicidal effect rating (ORYSAT Rice, Tebonnet [14]; 0.2500 kg/ha): 6.0; herbicidal effect rating (ORYSAT Rice, Tebonnet [14]; 0.5000 kg/ha): 8.0 |
| Cc1nsc2ccc(-n3c(=O)cc(C(F)(F)F)n(C)c3=O)cc12 [Compound 6, 1-Methyl-3-(3-methyl-1,2-benzisothiazol-5-yl)-6-(trifluoromethyl)-2,4(1H,3H)-pyrimidinedione] | 9.0 | 8.0 | 9.0 | 9.0 | 9.0 | 9.0 | 8.0 | 8.0 | 4.0 | 7.0 | 9.0 | 9.0 | 9.0 | 9.0 | 9.0 | 9.0 | 8.0 | 8.0 | 8.0 | 8.0 | herbicide rating (0-9) ([1]; 0.0630 kg/ha): 9.0; herbicide rating (0-9) ([2]; 0.0630 kg/ha): 2.5; herbicide rating (0-9) (Galium, Galium aparine; 0.0630 kg/ha): 5.0; herbicide rating (0-9) ([4]; 0.0630 kg/ha): 2.0; herbicidal effect rating (CYPIR Rice Flatsedge; 0.1250 kg/ha): 9.0; herbicidal effect rating (CYPIR Rice Flatsedge; 0.2500 kg/ha): 9.0; herbicidal effect rating (CYPIR Rice Flatsedge; 0.5000 kg/ha): 9.0; herbicidal effect rating (CYPSE Flatsedge [11]; 0.1250 kg/ha): 7.0; herbicidal effect rating (CYPSE Flatsedge [11]; 0.2500 kg/ha): 7.0; herbicidal effect rating (CYPSE Flatsedge [11]; 0.5000 kg/ha): 9.0; herbicidal effect rating (MOOVA Monochoria [12]; 0.1250 kg/ha): 9.0; herbicidal effect rating (MOOVA Monochoria [12]; 0.2500 kg/ha): 9.0; herbicidal effect rating (MOOVA Monochoria [12]; 0.5000 kg/ha): 9.0; herbicidal effect rating ([13]; 0.1250 kg/ha): 6.0; herbicidal effect rating ([13]; 0.2500 kg/ha): 8.0; herbicidal effect rating ([13]; 0.5000 kg/ha): 9.0; herbicidal effect rating (ORYSAT Rice, Tebonnet [14]; 0.1250 kg/ha): 9.0; herbicidal effect rating (ORYSAT Rice, Tebonnet [14]; 0.2500 kg/ha): 9.0; herbicidal effect rating (ORYSAT Rice, Tebonnet [14]; 0.5000 kg/ha): 9.0 |
| COc1cc(C)ccc1-c1nsc2ccc(-n3c(=O)cc(C(F)(F)F)n(C)c3=O)cc12 [Compound 7, 3-[3-(2-Methoxy-p-tolyl)-1,2-benzisothiazol-5-yl]-1-methyl-6-(trifluoromethyl)-2,4(1H,3H)-pyrimidinedione] | 9.0 | 9.0 | 8.0 | 9.0 | 9.0 | 9.0 | 8.0 | 6.0 | 7.0 | 8.0 | 7.0 | 9.0 | 9.0 | 9.0 | 9.0 | 9.0 | 8.0 | 7.0 | 7.0 | 9.0 | herbicidal effect rating (CYPSE Flatsedge [8]; 0.0313 kg/ha): 7.0; herbicidal effect rating (MOOVA Monochoria [9]; 0.0313 kg/ha): 9.0; herbicidal effect rating (ORYSAT Rice, Tebonnet [10]; 0.0313 kg/ha): 6.0; herbicidal effect rating (CYPIR Rice Flatsedge; 0.1250 kg/ha): 9.0; herbicidal effect rating (CYPIR Rice Flatsedge; 0.2500 kg/ha): 9.0; herbicidal effect rating (CYPIR Rice Flatsedge; 0.5000 kg/ha): 9.0; herbicidal effect rating (CYPSE Flatsedge [11]; 0.1250 kg/ha): 9.0; herbicidal effect rating (CYPSE Flatsedge [11]; 0.2500 kg/ha): 9.0; herbicidal effect rating (CYPSE Flatsedge [11]; 0.5000 kg/ha): 8.0; herbicidal effect rating (MOOVA Monochoria [12]; 0.1250 kg/ha): 9.0; herbicidal effect rating (MOOVA Monochoria [12]; 0.2500 kg/ha): 9.0; herbicidal effect rating (MOOVA Monochoria [12]; 0.5000 kg/ha): 9.0; herbicidal effect rating ([13]; 0.1250 kg/ha): 4.0; herbicidal effect rating ([13]; 0.2500 kg/ha): 9.0; herbicidal effect rating ([13]; 0.5000 kg/ha): 9.0; herbicidal effect rating (ORYSAT Rice, Tebonnet [14]; 0.1250 kg/ha): 7.0; herbicidal effect rating (ORYSAT Rice, Tebonnet [14]; 0.2500 kg/ha): 7.0; herbicidal effect rating (ORYSAT Rice, Tebonnet [14]; 0.5000 kg/ha): 8.0 |
